# From the NIST ThermoML archive (doi:10.1021/je200140m)
# Numbers after ± are expanded uncertainties.
# Experiments:
# [1] = Liquid, Closed cell (Static) method
# [2] = refractive index (Na D-line) (dimensionless); settings: 101.33 kPa, Liquid, Standard Abbe refractometry
structure (smiles),measurement,setting,value
COC=O [methyl methanoate],vapor or sublimation pressure,[1]; 308.11 K,114.7 ± 0.9 kPa
same,vapor or sublimation pressure,[1]; 358.92 K,550.4 ± 1.4 kPa
same,refractive index,[2]; 293.1 K,1.34359 ± 0.00076
COC [dimethyl ether],vapor or sublimation pressure,[1]; 308.1 K,788 ± 2 kPa
same,vapor or sublimation pressure,[1]; 308.13 K,785.2 ± 1.8 kPa
same,vapor or sublimation pressure,[1]; 335.65 K,1539.6 ± 2.6 kPa
CCCCCC [hexane],vapor or sublimation pressure,[1]; 308.12 K,30.8 ± 0.8 kPa
same,vapor or sublimation pressure,[1]; 335.66 K,83 ± 1 kPa
same,refractive index,[2]; 298.1 K,1.37514 ± 0.00073
CO [methanol],vapor or sublimation pressure,[1]; 358.93 K,221.4 ± 1 kPa
same,refractive index,[2]; 293.1 K,1.32853 ± 0.00073
